Assay results taken from the supplement of paper PMC7017272.
± gives the standard deviation of the averaged measurements.

Key:
UT-SCC-24A = assay: drug sensitivity score (DSS); higher = more sensitive; settings: treatment time: 3 days
Protocol: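 HNSCC cell lines (500 cells/well, 384-well) were cultured on plastic, on top of (2D) or embedded (3D) in Matrigel or human leiomyoma matrix Myogel (500 ug/mL; Myogel 3D mixed with rat collagen I). Cells were treated for 3 days with 5 ten-fold concentrations of each drug, and viability was read by CellTiter-Glo. Suffixes _1/_2/_3 on drug names are replicates.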

UT-SCC-40 [1] = assay: relative IC50 (midpoint of the fitted curve; maximal inhibition may be below 50%); higher = less potent; settings: treatment time: 3 days
In short: (§1)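 Viability of HPV-negative HNSCC cell lines was measured by CellTiter-Glo 2.0 luminescence. Cells were seeded at 500 cells/well in 384-well plates on plastic, on Matrigel- or Myogel-coated wells (500 µg/mL), or embedded in Matrigel or Myogel plus rat collagen I, then given compounds at five 10-fold concentrations for 3 days, with signals normalised to vehicle (0.1% DMSO) and cell-killing control wells. Fitting of percent-inhibition dose–response curves in the FIMM pipeline yielded IC50, maximal inhibition and drug sensitivity score.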

UT-SCC-81 [2] = assay: as above; settings: treatment time: 3 days
In short: as §1

UT-SCC-24B [3] = assay: as above; settings: culture condition: on top of Myogel; treatment time: 3 days
In short: as §1

UT-SCC-28 [4] = assay: as above; settings: culture condition: plastic 2D (no matrix); treatment time: 3 days
In short: as §1

UT-SCC-44 = assay: maximal % inhibition of viability relative to DMSO; higher = stronger effect; settings: treatment time: 3 days
Protocol: (§2)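 HNSCC cell lines (500 cells/well, 384-well) were cultured on plastic, on top of (2D) or embedded (3D) in Matrigel or human leiomyoma matrix Myogel (500 ug/mL; Myogel 3D mixed with rat collagen I). Cells were treated for 3 days with 5 ten-fold concentrations of each drug, and viability was read by CellTiter-Glo. Viability was normalised to DMSO and benzethonium chloride controls and fitted with the FIMM DSRT pipeline to give IC50 (nM), maximal % inhibition and DSS. Suffixes _1/_2/_3 are replicates. Only inhibition-mode (IC50) fits are kept.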

UT-SCC-8 = assay: as above; settings: treatment time: 3 days
Protocol: as §2

UT-SCC-42A = assay: as above; settings: treatment time: 3 days
Protocol: as §2

UT-SCC-40 [5] = assay: as above; settings: treatment time: 3 days
Protocol: as §2

UT-SCC-81 [6] = assay: as above; settings: treatment time: 3 days
Protocol: as §2

UT-SCC-24B [7] = assay: as above; settings: treatment time: 3 days
Protocol: as §2

UT-SCC-73 = assay: as above; settings: treatment time: 3 days
Protocol: as §2

UT-SCC-106A = assay: as above; settings: treatment time: 3 days
Protocol: as §2

UT-SCC-14 = assay: as above; settings: treatment time: 3 days
Protocol: as §2

UT-SCC-28 [8] = assay: as above; settings: treatment time: 3 days
Protocol: as §2

UT-SCC-42B = assay: as above; settings: treatment time: 3 days
Protocol: as §2

[9] = culture condition: embedded in Matrigel
[10] = culture condition: embedded in Myogel + collagen I
[11] = culture condition: on top of Matrigel
[12] = culture condition: on top of Myogel
[13] = culture condition: plastic 2D (no matrix)

In the case of `CO[C@H]1C[C@@H]2CC[C@@H](C)[C@@](O)(O2)C(=O)C(=O)N2CCCC[C@H]2C(=O)O[C@H]([C@H](C)C[C@@H]2CC[C@@H](OC(=O)C(C)(CO)CO)[C@H](OC)C2)CC(=O)[C@H](C)/C=C(\C)[C@@H](O)[C@@H](OC)C(=O)[C@H](C)C[C@H](C)/C=C/C=C/C=C/1C` [Temsirolimus], the drug sensitivity score (UT-SCC-24A; [9]) is reported as 10.2 ± 11 DSS, the drug sensitivity score (UT-SCC-24A; [10]) is reported as 9.67 ± 2.8 DSS and the drug sensitivity score (UT-SCC-24A; [11]) is reported as 4.9 ± 1.3 DSS. The drug sensitivity score (UT-SCC-24A; [12]) was 5.03 ± 1.2 DSS, the drug sensitivity score (UT-SCC-24A; [13]) was 6.07 ± 0.67 DSS and the “relative IC50” value (UT-SCC-40 [1]; [10]) was 2.84 nM. The “relative IC50” value (UT-SCC-40 [1]; [11]) was 0.896 nM, the “relative IC50” value (UT-SCC-81 [2]; [11]) was 1.13 nM and the “relative IC50” value (UT-SCC-81 [2]; [12]) was 0.543 nM. For the same compound, the “relative IC50” value (UT-SCC-81 [2]; [13]) was 0.857 nM, the “relative IC50” value (UT-SCC-24B [3]) was 1 nM and the “relative IC50” value (UT-SCC-28 [4]) was 0.519 nM. The “maximal % inhibition of viability” value (UT-SCC-44; [9]) was 29.4 ± 1.9%, the “maximal % inhibition of viability” value (UT-SCC-44; [10]) was 38.9 ± 6.9% and the “maximal % inhibition of viability” value (UT-SCC-44; [11]) was 38.4 ± 1.5%. The “maximal % inhibition of viability” value (UT-SCC-44; [12]) was 38.6 ± 4%, the “maximal % inhibition of viability” value (UT-SCC-44; [13]) was 35 ± 1.3% and the “maximal % inhibition of viability” value (UT-SCC-8; [9]) was 41.8 ± 4.6%. The “maximal % inhibition of viability” value (UT-SCC-8; [10]) was 31.4 ± 11%, the “maximal % inhibition of viability” value (UT-SCC-8; [11]) was 38.9 ± 9.9% and the “maximal % inhibition of viability” value (UT-SCC-8; [12]) was 48.1 ± 8.7%. The “maximal % inhibition of viability” value (UT-SCC-8; [13]) was 42.3 ± 5.6%, the “maximal % inhibition of viability” value (UT-SCC-42A; [9]) was 35 ± 6.8% and the “maximal % inhibition of viability” value (UT-SCC-42A; [10]) was 39.1 ± 4.7%. The “maximal % inhibition of viability” value (UT-SCC-42A; [11]) was 41 ± 2.4%, the “maximal % inhibition of viability” value (UT-SCC-42A; [12]) was 37.4 ± 3.1% and the “maximal % inhibition of viability” value (UT-SCC-42A; [13]) was 39.6 ± 2.3%. For the same compound, the “maximal % inhibition of viability” value (UT-SCC-40 [5]; [9]) was 33.9 ± 13%, the “maximal % inhibition of viability” value (UT-SCC-40 [5]; [10]) was 40.5 ± 20% and the “maximal % inhibition of viability” value (UT-SCC-40 [5]; [11]) was 24.6 ± 6.1%. The “maximal % inhibition of viability” value (UT-SCC-40 [5]; [12]) was 21.9 ± 3.2%, the “maximal % inhibition of viability” value (UT-SCC-40 [5]; [13]) was 22.1 ± 2.3% and the “maximal % inhibition of viability” value (UT-SCC-81 [6]; [9]) was 63.3 ± 16%. The “maximal % inhibition of viability” value (UT-SCC-81 [6]; [10]) was 56.5 ± 6%, the “maximal % inhibition of viability” value (UT-SCC-81 [6]; [11]) was 44.6 ± 5.2% and the “maximal % inhibition of viability” value (UT-SCC-81 [6]; [12]) was 54.3 ± 0.82%. The “maximal % inhibition of viability” value (UT-SCC-81 [6]; [13]) was 49.7 ± 7.5%, the “maximal % inhibition of viability” value (UT-SCC-24B [7]; [9]) was 25.8 ± 7.9% and the “maximal % inhibition of viability” value (UT-SCC-24B [7]; [10]) was 42.2 ± 4%. For the same compound, the “maximal % inhibition of viability” value (UT-SCC-24B [7]; [11]) was 27.4 ± 4.7%, the “maximal % inhibition of viability” value (UT-SCC-24B [7]; [12]) was 32.7 ± 1.8% and the “maximal % inhibition of viability” value (UT-SCC-24B [7]; [13]) was 29.7 ± 5.7%. For the same compound, the “maximal % inhibition of viability” value (UT-SCC-73; [9]) was 32 ± 6.7%, the “maximal % inhibition of viability” value (UT-SCC-73; [10]) was 38.7 ± 21% and the “maximal % inhibition of viability” value (UT-SCC-73; [11]) was 29.7 ± 3.1%. The “maximal % inhibition of viability” value (UT-SCC-73; [12]) was 34.5 ± 1.6%, the “maximal % inhibition of viability” value (UT-SCC-73; [13]) was 24 ± 6.6% and the “maximal % inhibition of viability” value (UT-SCC-106A; [9]) was 36.2 ± 2.6%. For the same compound, the “maximal % inhibition of viability” value (UT-SCC-106A; [10]) was 33.9 ± 5.5%, the “maximal % inhibition of viability” value (UT-SCC-106A; [11]) was 36.4 ± 0.4% and the “maximal % inhibition of viability” value (UT-SCC-106A; [12]) was 25.1 ± 1.4%. For the same compound, the “maximal % inhibition of viability” value (UT-SCC-106A; [13]) was 39.8 ± 5%, the “maximal % inhibition of viability” value (UT-SCC-14; [9]) was 53.5 ± 4.4% and the “maximal % inhibition of viability” value (UT-SCC-14; [10]) was 52.5 ± 4.8%. The “maximal % inhibition of viability” value (UT-SCC-14; [11]) was 50.5 ± 2.5%, the “maximal % inhibition of viability” value (UT-SCC-14; [12]) was 45.4 ± 4.4% and the “maximal % inhibition of viability” value (UT-SCC-14; [13]) was 46.3 ± 8.9%. The “maximal % inhibition of viability” value (UT-SCC-28 [8]; [9]) was 29.7 ± 9.9%, the “maximal % inhibition of viability” value (UT-SCC-28 [8]; [10]) was 37.2 ± 7.1% and the “maximal % inhibition of viability” value (UT-SCC-28 [8]; [11]) was 38 ± 2.7%. The “maximal % inhibition of viability” value (UT-SCC-28 [8]; [13]) was 35.3 ± 4.3%, the “maximal % inhibition of viability” value (UT-SCC-42B; [9]) was 25.8 ± 20% and the “maximal % inhibition of viability” value (UT-SCC-42B; [11]) was 17.6 ± 6.1%. For the same compound, the “maximal % inhibition of viability” value (UT-SCC-42B; [12]) was 9.87 ± 4.1% and the “maximal % inhibition of viability” value (UT-SCC-42B; [13]) was 15.3 ± 3.6%.
